Source: patent US20220089592A1, “IMIDAZO[1,2-A]PYRIDINYL DERIVATIVES AS IRAK4 INHIBITORS” (priority 2019, published 2022)
Where a name gives a salt, the structure may show the parent alone.

Each compound was assayed against T1, IRAK4 (Homo sapiens, UniProt Q9NWZ3) (assay: 2-hour 1 mM ATP IRAK4 Biochemical assay (as above, but with 100 pM IRAK4 and 1 mM ATP)). Conditions: IRAK4 MSD BIOCHEMICAL (1 mM ATP) IC50 (μM), 100 pM IRAK4, 2 hours.
T1 sequence (Q9NWZ3 1-460): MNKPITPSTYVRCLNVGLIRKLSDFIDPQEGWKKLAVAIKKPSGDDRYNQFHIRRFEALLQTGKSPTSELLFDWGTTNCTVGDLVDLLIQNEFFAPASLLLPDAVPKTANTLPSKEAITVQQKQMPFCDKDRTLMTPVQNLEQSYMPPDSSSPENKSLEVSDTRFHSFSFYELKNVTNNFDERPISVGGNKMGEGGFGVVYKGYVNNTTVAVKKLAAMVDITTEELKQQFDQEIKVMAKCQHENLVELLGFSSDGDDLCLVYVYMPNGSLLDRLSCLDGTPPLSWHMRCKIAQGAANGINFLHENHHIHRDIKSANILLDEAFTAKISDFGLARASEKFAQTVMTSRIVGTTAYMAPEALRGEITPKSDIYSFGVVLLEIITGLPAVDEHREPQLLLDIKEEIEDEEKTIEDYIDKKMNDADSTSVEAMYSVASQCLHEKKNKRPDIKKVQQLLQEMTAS
Method in brief: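 Run with 100 pM IRAK4 and 1 mM ATP for 2 hours, quenched with EDTA pH 8. Phosphorylated biotinylated peptide captured on streptavidin MSD plates and detected with anti-phosphothreonine antibody plus Sulfo-Tag secondary by electrochemiluminescence.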

| SMILES | IC50 [µM] |
| --- | --- |
| COCCCc1cn2cc(NC(=O)c3cccc(C(F)F)n3)cc(OC)c2n1 [Example 282, 6-(difluoromethyl)-N-(8-methoxy-2-(3-methoxypropyl)imidazo[1,2-a]pyridin-6-yl)picolinamide] | 0.007 |
| CC(C)Oc1nc(NC(=O)c2cccc3ccnn23)cn2cc(C34COC(C)(C3)C4)nc12 [Example 336, N-(8-Isopropoxy-2-(1-methyl-2-oxabicyclo[2.1.1]hexan-4-yl)imidazo[1,2-a]pyrazin-6-yl)pyrazolo[1,5-a]pyridine-7-carboxamide] | 0.003 |
| CC(C)Oc1cc2nc(C(F)F)cn2cc1NC(=O)c1ccn(C(F)F)n1 [Example 267, 1-(difluoromethyl)-N-(2-(difluoromethyl)-7-isopropoxyimidazo[1,2-a]pyridin-6-yl)-1H-pyrazole-3-carboxamide] | 0.002 |
| CCOc1cc2nc(C(C)C#N)cn2cc1NC(=O)c1cccc(C(F)F)n1 (centres unmarked) [Example 316, N-(2-(1-cyanoethyl)-7-ethoxyimidazo[1,2-a]pyridin-6-yl)-6-(difluoromethyl)picolinamide] | 0.003 |
| CC12CC(c3cn4cc(NC(=O)c5cccc6c5OCC6)cc(OC(F)F)c4n3)(CO1)C2 [Example 421, N-(8-(difluoromethoxy)-2-(1-methyl-2-oxabicyclo[2.1.1]hexan-4-yl)imidazo[1,2-a]pyridin-6-yl)-2,3-dihydrobenzofuran-7-carboxamide 2,2,2-trifluoroacetate] | 0.018 |
| COc1nc2nc(C3C4COCC43)cn2cc1NC(=O)c1cccc(C(F)F)n1 (centres unmarked) [Example 568, N-(2-(3-oxabicyclo[3.1.0]hexan-6-yl)-7-methoxyimidazo[1,2-a]pyrimidin-6-yl)-6-(difluoromethyl)picolinamide 2,2,2-trifluoroacetate] | 0.009 |
| CC(C)Oc1c(NC(=O)c2coc(C(F)F)n2)cn2cc(C34COC(C)(C3)C4)nc2c1F [Example 430, 2-(difluoromethyl)-N-(8-fluoro-7-isopropoxy-2-(1-methyl-2-oxabicyclo[2.1.1]hexan-4-yl)imidazo[1,2-a]pyridin-6-yl)oxazole-4-carboxamide 2,2,2-trifluoroacetate] | 0.008 |
| CC1(COc2cc3nc(C4CCOCC4)cn3cc2NC(=O)c2cccc(C(F)F)n2)CCOC1 (centres unmarked) [Example 197, 6-(difluoromethyl)-N-(7-((3-methyltetrahydrofuran-3-yl)methoxy)-2-(tetrahydro-2H-pyran-4-yl)imidazo[1,2-a]pyridin-6-yl)picolinamide] | 0.004 |
| CC(C)Oc1cc2nc(-c3cccc(F)c3)cn2cc1NC(=O)c1cccc(C(F)F)n1 [Example 538, 6-(difluoromethyl)-N-(2-(3-fluorophenyl)-7-isopropoxyimidazo[1,2-a]pyridin-6-yl)picolinamide 2,2,2-trifluoroacetate] | 0.003 |
| CC(C)Oc1cc2nc(C3CCOCC3)cn2cc1NC(=O)c1ccn(C)n1 [Example 384, N-(7-isopropoxy-2-(tetrahydro-2H-pyran-4-yl)imidazo[1,2-a]pyridin-6-yl)-1-methyl-1H-pyrazole-3-carboxamide] | 0.004 |
| CCOc1c(NC(=O)c2cccc(C(F)F)n2)cn2cc(C3CCOCC3)nc2c1Cl [Example 272, N-(8-chloro-7-ethoxy-2-(tetrahydro-2H-pyran-4-yl)imidazo[1,2-a]pyridin-6-yl)-6-(difluoromethyl)picolinamide] | 0.003 |
| COc1nc(NC(=O)c2cccc(C(F)F)n2)cn2cc(C3C4COCC43)nc12 (centres unmarked) [Example 551, N-(2-(3-oxabicyclo[3.1.0]hexan-6-yl)-8-methoxyimidazo[1,2-a]pyrazin-6-yl)-6-(difluoromethyl)picolinamide 2,2,2-trifluoroactetate] | 0.026 |
| O=C(Nc1cn2cc(C3CCOCC3)nc2cc1OCCC1CCOC1)c1cccc(C(F)F)n1 (centres unmarked) [Example 195, 6-(difluoromethyl)-N-(2-(tetrahydro-2H-pyran-4-yl)-7-(2-(tetrahydrofuran-3-yl)ethoxy)imidazo[1,2-a]pyridin-6-yl)picolinamide] | 0.002 |
| O=C(Nc1cn2cc(C3CC4(CCOC4)C3)nc2cn1)c1cccc(C(F)F)n1 (centres unmarked) [Example 273, N-(2-(6-oxaspiro[3.4]octan-2-yl)imidazo[1,2-a]pyrazin-6-yl)-6-(difluoromethyl)picolinamide] | 0.02 |
| O=C(Nc1cc(OCC(F)F)c2nc(C3CCOCC3)cn2c1)c1cccc(C(F)F)n1 [Example 289, N-(8-(2,2-difluoroethoxy)-2-(tetrahydro-2H-pyran-4-yl)imidazo[1,2-a]pyridin-6-yl)-6-(difluoromethyl)picolinamide] | 0.006 |
| CC(C)Oc1nc2nc(C3C4COCC43)cn2cc1NC(=O)c1ccn(C(C)C)n1 (centres unmarked) [Example 501, N-(2-(3-oxabicyclo[3.1.0]hexan-6-yl)-7-isopropoxyimidazo[1,2-a]pyrimidin-6-yl)-1-isopropyl-1H-pyrazole-3-carboxamide hydrochloride] | 0.002 |
| CC(C)Oc1cc2nc(C3CCOCC3)c(F)n2cc1NC(=O)c1cccc(C(F)F)n1 [Example 352, 6-(difluoromethyl)-N-(3-fluoro-7-isopropoxy-2-(tetrahydro-2H-pyran-4-yl)imidazo[1,2-a]pyridin-6-yl)picolinamide] | 0.001 |
| CC12CC(c3cn4cc(NC(=O)c5cccc6ccnn56)cc(OC(F)F)c4n3)(CO1)C2 [Example 422, N-(8-(difluoromethoxy)-2-(1-methyl-2-oxabicyclo[2.1.1]hexan-4-yl)imidazo[1,2-a]pyridin-6-yl)pyrazolo[1,5-a]pyridine-7-carboxamide 2,2,2-trifluoroacetate] | 0.012 |
| CCOc1cc(NC(=O)c2cccc(C(F)(F)F)n2)cn2cc([C@H]3[C@@H]4COC[C@@H]43)nc12 [Example 416, N-(2-((1R,5S,6s)-3-oxabicyclo[3.1.0]hexan-6-yl)-8-ethoxyimidazo[1,2-a]pyridin-6-yl)-6-(trifluoromethyl)picolinamide] | 0.023 |
| CC(C)Oc1nc2nc(C34COC(C)(C3)C4)cn2cc1NC(=O)c1ccn(C(F)F)n1 [Example 498, 1-(difluoromethyl)-N-(7-isopropoxy-2-(1-methyl-2-oxabicyclo[2.1.1]hexan-4-yl)imidazo[1,2-a]pyrimidin-6-yl)-1H-pyrazole-3-carboxamide] | 0.001 |

More lines, now with the values ahead:

| IC50 [µM] | SMILES |
| --- | --- |
| 0.001 | COc1cc2nc(C34COC(C)(C3)C4)cn2cc1NC(=O)c1cccc(C(F)F)n1 [Example 515, 6-(difluoromethyl)-N-(7-methoxy-2-(1-methyl-2-oxabicyclo[2.1.1]hexan-4-yl)imidazo[1,2-a]pyridin-6-yl)picolinamide 2,2,2-trifluoroacetate] |
| 0.001 | CC(C)Oc1c(NC(=O)c2ccn(C(F)F)n2)cn2cc(C34COC(C)(C3)C4)nc2c1F [Example 547, 1-(difluoromethyl)-N-(8-fluoro-7-isopropoxy-2-(1-methyl-2-oxabicyclo[2.1.1]hexan-4-yl)imidazo[1,2-a]pyridin-6-yl)-1H-pyrazole-3-carboxamide] |
| 0.001 | COc1cc2nc(C34COC(C)(C3)C4)cn2cc1NC(=O)c1cccc(C(F)(F)F)n1 [Example 309, N-(7-methoxy-2-(1-methyl-2-oxabicyclo[2.1.1]hexan-4-yl)imidazo[1,2-a]pyridin-6-yl)-6-(trifluoromethyl)picolinamide] |
| 0.001 | COc1ncccc1C(=O)Nc1cn2cc(C34COC(C)(C3)C4)nc2cc1OC(C)C(F)(F)F (racemic) [Example 317, 2-methoxy-N-(2-(1-methyl-2-oxabicyclo[2.1.1]hexan-4-yl)-7-((1,1,1-trifluoropropan-2-yl)oxy)imidazo[1,2-a]pyridin-6-yl)nicotinamide] |
| 0.001 | CC(Oc1cc2nc(C34COC(C)(C3)C4)cn2cc1NC(=O)c1ccn(C)n1)C(F)(F)F (centres unmarked) [Example 399, 1-methyl-N-(2-(1-methyl-2-oxabicyclo[2.1.1]hexan-4-yl)-7-((1,1,1-trifluoropropan-2-yl)oxy)imidazo[1,2-a]pyridin-6-yl)-1H-pyrazole-3-carboxamide 2,2,2-trifluoracetate] |
| 0.022 | COc1ncccc1C(=O)Nc1cn2cc(C34CCC(C)(C3)OC4)nc2c(OC)n1 (centres unmarked) [Example 468, 2-methoxy-N-(8-methoxy-2-(1-methyl-2-oxabicyclo[2.2.1]heptan-4-yl)imidazo[1,2-a]pyrazin-6-yl)nicotinamide 2,2,2-trifluoroacetate] |
| 0.021 | COc1ncccc1C(=O)Nc1cn2cc(C34COC(C)(C3)C4)nc2cc1C(F)F [Example 391, N-(7-(difluoromethyl)-2-(1-methyl-2-oxabicyclo[2.1.1]hexan-4-yl)imidazo[1,2-a]pyridin-6-yl)-2-methoxynicotinamide 2,2,2-trifluoroacetate] |
| 0.015 | COc1ncccc1C(=O)Nc1cn2cc(C34COC(C)(C3)C4)nc2c(OC)n1 [Example 447, 2-methoxy-N-(8-methoxy-2-(1-methyl-2-oxabicyclo[2.1.1]hexan-4-yl)imidazo[1,2-a]pyrazin-6-yl)nicotinamide 2,2,2-trifluoroacetate] |
| 0.002 | COc1ncccc1C(=O)Nc1cn2cc(C34COC(C)(C3)C4)nc2cc1OC(F)F [Example 396, N-(7-(difluoromethoxy)-2-(1-methyl-2-oxabicyclo[2.1.1]hexan-4-yl)imidazo[1,2-a]pyridin-6-yl)-2-methoxynicotinamide 2,2,2-trifluoroacetate] |
